Values of other authors in patent US8058278B2, “Methods of enhancing mucosal hydration and mucosal clearance by treatment with sodium channel blockers and osmolytes” (Parion Sciences, Inc., priority 2006, dated 2011).

Tested on: water permeability of airways
Settings: amiloride used concurrently with hypertonic saline

In the case of N=C(N)NC(=O)c1nc(Cl)c(N)nc1N [Amiloride, amiloride], the “effect on water permeability of airways” value is given as “block the water permeability of airways”.
